≈ marks a conversion by molar mass, not a printed value.
Assays:
[1] = system: Bacillaceae; assay: Minimum inhibitory concentration (MIC), broth dilution; assay type: cell-based; conditions: 24 h; strain 1722
Experimental: (§1) Different bacterial species isolated from patients are employed.
(§2) Compounds AB5 and AB6 are dissolved in ethanol (ethyl alcohol 95°, C. Erba) and all the subsequent dilutions performed in distilled water. The chlorhexidine is diluted from the commercial product already dissolved in distilled water.
(§3) The broth dilution is employed to assess MIC values for all strains. Sterile microtiter plates with U bottom with 96 wells are employed. 0.1 Ml of liquid medium (tryptose Roche broth) are put in each well, the plates are kept at -20° and, before use, at room temperature.
(§4) The disinfectant agent is put in the wells of the row 2 at a concentration of 4000 mcg/ml (real 2000 mcg/ml) and then with a 100 µl micro- pipette dilutions are performed from row 2 to row 11.
(§5) The row 1 is the control of the medium and the row 12 is the control for the fertility of the medium itself.
(§6) After having performed the dilutions, 0.01 ml of a 24 hrs bacterial broth culture (previously diluted at 10^-4 for Gram-negative strains and 10-2 for Gram-positive ones) are placed in all wells, from the rows 2 to 12. After the inoculation, the plate is hermetical ly sealed with adhesive transparent band and an hole is done with a needle. The plates are kept at 35° for 24 hours and a macroscopic reading is carried out; in case of non uniform reading, taking place only for chlorhexidine, the cultures from the wells are plated on agar-heart-brain medium (Sclavo) through Dinatech apparatus (head "Inoculum 96") and the reading of the growth is carried out in the following 24 hours.

[2] = system: E.coli; assay: as above; assay type: cell-based; conditions: Escherichia coli, 24 h
Experimental: as §1, §2, §3, §4, §5, §6

[3] = system: Enterobacter; assay: as above; assay type: cell-based; conditions: 24 h, strain 2643
Experimental: as §1, §2, §3, §4, §5, §6

[4] = system: Indole-positive Proteus; assay: as above; assay type: cell-based; conditions: 24 h
Experimental: as §1, §2, §3, §4, §5, §6

[5] = system: Pseudomonas aeruginosa; assay: as above; assay type: cell-based; conditions: 24 h
Experimental: as §1, §2, §3, §4, §5, §6

[6] = system: Salmonella sp.; assay: as above; assay type: cell-based; conditions: 24 h, strain 2482
Experimental: as §1, §2, §3, §4, §5, §6

[7] = system: Serratia marcescens; assay: as above; assay type: cell-based; conditions: 24 h, strain 1814
Experimental: as §1, §2, §3, §4, §5, §6

[8] = system: Staph. aureus; assay: as above; assay type: cell-based; conditions: Staphylococcus aureus, 24 h; strain 2672
Experimental: as §1, §2, §3, §4, §5, §6

[9] = system: E. coli; assay: Bactericide activity at different contact times; assay type: cell-based; set-up: key to Bactericide action (growth / no growth): + = growth; - = no growth; conditions: 100 p.p.m.
Experimental: as §1, §2
(§7) It is assessed through Dinatech apparatus with "Inoculum 96" head.
(§8) Chemical compounds at established concentra tions are placed in amount of 1 ml in the con tainers, the bacterial inoculum is then added in amount of 0.1 ml (24 hrs culture) and at pre-established times (3,5,10,30,60 and 120 mi nutes), through the head, the mixture compound/ disinfectant agent is transferred in solid medium (agar-heart-brain medium). After incubation at 35°C for 24 hours, the reading is carried out. The tests are repeated in presence of human serum at the concentration of 10%.

[10] = system: Indole-positive Proteus; assay: Bactericide activity at different contact times; assay type: cell-based; set-up: key to Bactericide action (growth / no growth): + = growth; - = no growth; conditions: 100 p.p.m.
Experimental: as §1, §2, §7, §8

[11] = system: Serratia marcescens; assay: Bactericide activity at different contact times; assay type: cell-based; set-up: key to Bactericide action (growth / no growth): + = growth; - = no growth; conditions: 100 p.p.m.
Experimental: as §1, §2, §7, §8

[12] = system: Pseudomonas aeruginosa; assay: Bactericide activity at different contact times; assay type: cell-based; set-up: key to Bactericide action (growth / no growth) / Bactericide activity (growth / no growth), serum interference test: + = growth; - = no growth
Experimental: as §1, §2, §7, §8

[13] = system: B. subtilis; assay: Bactericide activity at different contact times; assay type: cell-based; set-up: key: + = growth; - = no growth; conditions: 100 p.p.m.
Experimental: as §1, §2, §7, §8

[14] = system: Salmonella sp.; assay: Bactericide activity at different contact times; assay type: cell-based; set-up: key: + = growth; - = no growth; conditions: 100 p.p.m.
Experimental: as §1, §2, §7, §8

[15] = system: Staph. aureus; assay: Bactericide activity at different contact times; assay type: cell-based; set-up: key: + = growth; - = no growth; conditions: 100 p.p.m.
Experimental: as §1, §2, §7, §8

[16] = Toxicity, LD50 by intraperitoneal route; conditions: mouse, in vivo, ip, mice

With NC(=NI)c1ccccc1 [AB6] the MIC [1] was 31.2 µg/mL (≈ 0.127 mM), the MIC ([2]; strain 2094) was > 1000 µg/mL and the MIC ([2]; strain 2096) was > 1000 µg/mL. For the same compound, the MIC ([2]; strain 2117) was > 1000 µg/mL, the MIC ([2]; strain 2456) was > 1000 µg/mL and the MIC ([2]; strain 2568) was 2000 µg/mL (≈ 8.13 mM). The MIC [3] was 1000 µg/mL (≈ 4.06 mM), the MIC ([4]; strain 2075) was > 1000 µg/mL and the MIC ([4]; strain 2083) was > 1000 µg/mL. The MIC ([4]; strain 2105) was > 1000 µg/mL, the MIC ([4]; strain 2410) was > 2000 µg/mL and the MIC ([4]; strain 2447) was > 2000 µg/mL. For the same compound, the MIC ([4]; strain 2674) was 1000 µg/mL (≈ 4.06 mM), the MIC ([5]; strain 2084) was > 1000 µg/mL and the MIC ([5]; strain 2458) was > 1000 µg/mL. It also gave an MIC ([5]; strain 2488) of 1000 µg/mL (≈ 4.06 mM), an MIC ([5]; strain 2508) of 1000 µg/mL (≈ 4.06 mM) and an MIC ([5]; strain 2509) of 1000 µg/mL (≈ 4.06 mM). For the same compound, the MIC ([5]; strain 2670) was 1000 µg/mL (≈ 4.06 mM), the MIC [6] was > 1000 µg/mL and the MIC [7] was 125 µg/mL (≈ 0.508 mM). The MIC [8] was 1000 µg/mL (≈ 4.06 mM), the “Bactericide action (growth / no growth)” value ([9]; contact time 3 min) was “+” and the “Bactericide action (growth / no growth)” value ([9]; contact time 5 min) was “+”. For the same compound, the “Bactericide action (growth / no growth)” value ([9]; contact time 10 min) was “-”, the “Bactericide action (growth / no growth)” value ([9]; contact time 30 min) was “-” and the “Bactericide action (growth / no growth)” value ([9]; contact time 60 min) was “-”. For the same compound, the “Bactericide action (growth / no growth)” value ([9]; contact time 120 min) was “-”, the “contact time for total bactericide activity” value [10] was ≤ 3 min and the “Bactericide action (growth / no growth)” value ([10]; contact time 3 min) was “-”. For the same compound, the “Bactericide action (growth / no growth)” value ([10]; contact time 5 min) was “-”, the “Bactericide action (growth / no growth)” value ([10]; contact time 10 min) was “-” and the “Bactericide action (growth / no growth)” value ([10]; contact time 30 min) was “-”. For the same compound, the “Bactericide action (growth / no growth)” value ([10]; contact time 60 min) was “-”, the “Bactericide action (growth / no growth)” value ([10]; contact time 120 min) was “-” and the “longest time in which it is active” value [11] was 30 min. The “Bactericide action (growth / no growth)” value ([11]; contact time 3 min) was “+”, the “Bactericide action (growth / no growth)” value ([11]; contact time 5 min) was “+” and the “Bactericide action (growth / no growth)” value ([11]; contact time 10 min) was “+”. The “Bactericide action (growth / no growth)” value ([11]; contact time 30 min) was “-”, the “Bactericide action (growth / no growth)” value ([11]; contact time 60 min) was “-” and the “Bactericide action (growth / no growth)” value ([11]; contact time 120 min) was “-”. The “contact time for total bactericide activity” value ([12]; 100 p.p.m.) was ≤ 3 min, the “Bactericide action (growth / no growth)” value ([12]; contact time 3 min, 100 p.p.m.) was “-” and the “Bactericide activity (growth / no growth), serum interference test” value ([12]; contact time 3 min, with human serum (10%)) was “+”. For the same compound, the “Bactericide activity (growth / no growth), serum interference test” value ([12]; contact time 3 min, without serum) was “-”, the “Bactericide action (growth / no growth)” value ([12]; contact time 5 min, 100 p.p.m.) was “-” and the “Bactericide activity (growth / no growth), serum interference test” value ([12]; contact time 5 min, with human serum (10%)) was “+”. For the same compound, the “Bactericide activity (growth / no growth), serum interference test” value ([12]; contact time 5 min, without serum) was “-”, the “Bactericide action (growth / no growth)” value ([12]; contact time 10 min, 100 p.p.m.) was “-” and the “Bactericide activity (growth / no growth), serum interference test” value ([12]; contact time 10 min, with human serum (10%)) was “+”. The “Bactericide activity (growth / no growth), serum interference test” value ([12]; contact time 10 min, without serum) was “-”, the “Bactericide action (growth / no growth)” value ([12]; contact time 30 min, 100 p.p.m.) was “-” and the “Bactericide activity (growth / no growth), serum interference test” value ([12]; contact time 30 min, with human serum (10%)) was “+”. For the same compound, the “Bactericide activity (growth / no growth), serum interference test” value ([12]; contact time 30 min, without serum) was “-”, the “Bactericide action (growth / no growth)” value ([12]; contact time 60 min, 100 p.p.m.) was “-” and the “Bactericide activity (growth / no growth), serum interference test” value ([12]; contact time 60 min, with human serum (10%)) was “-”. For the same compound, the “Bactericide activity (growth / no growth), serum interference test” value ([12]; contact time 60 min, without serum) was “-”, the “Bactericide action (growth / no growth)” value ([12]; contact time 120 min, 100 p.p.m.) was “-” and the “Bactericide activity (growth / no growth), serum interference test” value ([12]; contact time 120 min, with human serum (10%)) was “-”. For the same compound, the “Bactericide activity (growth / no growth), serum interference test” value ([12]; contact time 120 min, without serum) was “-”, the “Bactericide action (growth / no growth)” value ([13]; contact time 3 min) was “-” and the “Bactericide action (growth / no growth)” value ([13]; contact time 5 min) was “-”. The “Bactericide action (growth / no growth)” value ([13]; contact time 10 min) was “-”, the “Bactericide action (growth / no growth)” value ([13]; contact time 30 min) was “-” and the “Bactericide action (growth / no growth)” value ([13]; contact time 60 min) was “-”. For the same compound, the “Bactericide action (growth / no growth)” value ([13]; contact time 120 min) was “-”, the “Bactericide action (growth / no growth)” value ([14]; contact time 3 min) was “-” and the “Bactericide action (growth / no growth)” value ([14]; contact time 5 min) was “-”. For the same compound, the “Bactericide action (growth / no growth)” value ([14]; contact time 10 min) was “-”, the “Bactericide action (growth / no growth)” value ([14]; contact time 30 min) was “-” and the “Bactericide action (growth / no growth)” value ([14]; contact time 60 min) was “-”. For the same compound, the “Bactericide action (growth / no growth)” value ([14]; contact time 120 min) was “-”, the “Bactericide action (growth / no growth)” value ([15]; contact time 3 min) was “-” and the “Bactericide action (growth / no growth)” value ([15]; contact time 5 min) was “-”. The “Bactericide action (growth / no growth)” value ([15]; contact time 10 min) was “-”, the “Bactericide action (growth / no growth)” value ([15]; contact time 30 min) was “-” and the “Bactericide action (growth / no growth)” value ([15]; contact time 60 min) was “-”. For the same compound, the “Bactericide action (growth / no growth)” value ([15]; contact time 120 min) was “-” and the LD50 [16] was 85 mg/kg.

Reference: patent publication EP0076430A1, “Compositions having antimicrobial activity” (MEDEA RESEARCH S.r.l., priority 1981, dated 1983)
